SMILES strings stand for the structures. ≈ marks a conversion by molar mass, not a printed value. Calls of active or inactive are those of the source.

Data set [1] is described as follows: Aqueous solubility of the compound incubated for 18 hrs by UPLC-SQDMS. Type of data set: physicochemical. The note with it: buffer.
The nature of data set [2]: Metabolic stability in mouse liver microsomes assessed as half life in presence of NADPH by UPLC-MS/MS analysis. The format is ADME, Microsome. (Microsomes from liver hold many membrane-bound enzymes, among them those of drug oxidation.)
Data set [3] concerns the target T1, Protein cereblon/Tyrosine-protein kinase Lck (Homo sapiens, UniProt P06239+Q96SW2). Nature of the data set: PROTAC activity at HiBit-tagged LCK/CRBN in human KOPT-K1 cells assessed as induction of LCK degradation incubated for 6 hrs by Nano-Glo HiBiT assay relative to control. The format is cell-based. (HiBiT is a short tag that completes a luciferase, so light tracks the accessible tagged protein.)
Target sequence in this assay (P06239 2-509 limits assumed): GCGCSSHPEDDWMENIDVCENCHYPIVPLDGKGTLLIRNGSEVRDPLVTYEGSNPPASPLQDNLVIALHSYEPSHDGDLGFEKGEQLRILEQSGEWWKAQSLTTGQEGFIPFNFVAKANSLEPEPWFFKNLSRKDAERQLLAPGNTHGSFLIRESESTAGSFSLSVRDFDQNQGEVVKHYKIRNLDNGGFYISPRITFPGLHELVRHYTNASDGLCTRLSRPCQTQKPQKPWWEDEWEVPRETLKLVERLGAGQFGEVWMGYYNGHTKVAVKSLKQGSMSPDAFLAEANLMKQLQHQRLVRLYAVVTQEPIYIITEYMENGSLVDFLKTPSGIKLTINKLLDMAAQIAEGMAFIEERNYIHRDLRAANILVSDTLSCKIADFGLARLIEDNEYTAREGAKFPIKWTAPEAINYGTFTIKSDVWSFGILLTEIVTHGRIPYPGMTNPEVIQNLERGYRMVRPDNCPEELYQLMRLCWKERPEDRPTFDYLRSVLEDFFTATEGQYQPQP
Target sequence in this assay (Q96SW2 whole entry partner): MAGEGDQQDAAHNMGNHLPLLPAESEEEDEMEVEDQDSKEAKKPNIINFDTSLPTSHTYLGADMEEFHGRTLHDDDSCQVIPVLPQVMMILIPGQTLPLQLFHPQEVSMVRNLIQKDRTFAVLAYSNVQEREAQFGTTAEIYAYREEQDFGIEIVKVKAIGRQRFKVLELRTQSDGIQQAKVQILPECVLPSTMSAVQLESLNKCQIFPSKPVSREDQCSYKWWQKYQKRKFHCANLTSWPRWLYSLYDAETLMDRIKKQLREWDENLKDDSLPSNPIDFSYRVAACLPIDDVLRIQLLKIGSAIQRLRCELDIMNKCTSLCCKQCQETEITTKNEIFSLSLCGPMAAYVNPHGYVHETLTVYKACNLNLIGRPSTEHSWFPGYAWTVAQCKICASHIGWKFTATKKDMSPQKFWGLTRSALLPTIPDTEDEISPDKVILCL

Data set [4] is described as follows: Stability in CD-1 mouse plasma assessed as half life. Type of data set: ADME, cell-free.
A short description of data set [5]: Drug concentration in CD-1 mouse plasma at 30 mg/kg, po measured after 4 hrs by UPLC-MS/MS analysis. The format is ADME, organism-based.
Data set [6] in a line: Apparent permeability of compound across apical to basolateral side in human Caco-2 cells. Type of data set: ADME, cell-based. A general note: Caco-2 cells form a polarised layer with tight junctions and transporters.
A short description of data set [7]: Apparent permeability of compound across basolateral to apical side in human Caco-2 cells. The format is ADME, cell-based.
The subject of data set [8] is KOPTK1. Kind of data set: Downregulation of EPHB1 in human KOPT-K1 cells measured for 6 hrs by tandem mass tag proteomic assay. The format is functional, cell-based.
The subject of data set [9] is KOPTK1. Nature of the data set: Downregulation of CISH in human KOPT-K1 cells measured for 6 hrs by tandem mass tag proteomic assay. Type of data set: functional, cell-based.
In data set [10] the test system is KOPTK1. Nature of the data set: Antiproliferative activity against human KOPT-K1 cells assessed as inhibition of cell growth at 100 nM measured for 18 hrs by celltiter glo assay. The format is functional, cell-based.
Data set [11] has as its system KOPTK1. Kind of data set: Downregulation of CSK in human KOPT-K1 cells measured for 6 hrs by tandem mass tag proteomic assay. The format is functional, cell-based.
Data set [12] deals with KOPTK1. Nature of the data set: Antiproliferative activity against human KOPT-K1 cells assessed as inhibition of cell growth at 100 nM measured for 160 hrs by celltiter glo assay. Type of data set: functional, cell-based.
In data set [13] the target is T1, Protein cereblon/Tyrosine-protein kinase Lck. Kind of data set: PROTAC activity at HiBit-tagged LCK/CRBN in human KOPT-K1 cells assessed as induction of LCK degradation incubated for 6 hrs by Nano-Glo HiBiT assay. Type of data set: cell-based.
Data set [14] has as its system KOPTK1. Nature of the data set: Antiproliferative activity against human KOPT-K1 cells assessed as effect on cell viability measured for 72 hrs by celltiter glo assay. Type of data set: functional. The note with it: read-out: LC50 (the source's name).
Data set [15] can be described thus: Efflux ratio of apparent permeability across basolateral to apical over apical to basolateral in human Caco-2 cells. The format is ADME, cell-based.
Data set [16] in a line: Clearance in CD-1 mouse at 3 mg/kg, iv measured up to 24 hrs by LC-MS/MS analysis. The format is ADME, organism-based. Particulars: in vivo.
Data set [17] can be described thus: Oral bioavailability in CD-1 mouse at 10 mg/kg measured up to 24 hrs by LC-MS/MS analysis. Type of data set: ADME, organism-based. The note with it: in vivo.

Turning to `Cc1nc(Nc2ncc(C(=O)Nc3c(C)cccc3Cl)s2)cc(N2CCN(CCCC(=O)N3CC4CC3CN4c3ccc(C4CCC(=O)NC4=O)cc3)CC2)n1` (centres undefined), the concentration in solution in [1] (solubility at 18 h) was 0.19 µM (≈ 0.152 µg/mL). The half-life in [2] was 0.32 h. Besides, in data set [3], the Emax was 90%.
For the compound `Cc1nc(Nc2ncc(C(=O)Nc3c(C)cccc3Cl)s2)cc(N2CCN(CCCN3CCC4(CC3)CCN(c3ccc(C5CCC(=O)NC5=O)cc3)CC4)CC2)n1` (centres undefined), the half-life in data set [4] is 47.4 h; in data set [2], 10 h. Also, the solubility at 18 h in data set [1] was 1.4 µM (≈ 1.16 µg/mL). The same compound had a concentration at 4 h in data set [5] of 18 ng/mL. The Papp A→B in data set [6] was determined as 0.231 ×10⁻⁶ cm/s. The Emax in [3] was 93%. Besides, in [7], the Papp B→A was 5.3 ×10⁻⁶ cm/s.
For the compound `Cc1nc(Nc2ncc(C(=O)Nc3c(C)cccc3Cl)s2)cc(N2CCN(CCO)CC2)n1`, the outcome in the data set on KOPTK1 [8], in the data set with KOPTK1 [9], in the data set with KOPTK1 [10] and with KOPTK1 [11] was Active. Further, the result with KOPTK1 [12] was inactive.
`Cc1nc(Nc2ncc(C(=O)Nc3c(C)cccc3Cl)s2)cc(N2CCN(CCCN3CCN(c4ccc(C5CCC(=O)NC5=O)cc4)CC3)CC2)n1` (centres undefined) gave a solubility at 18 h in data set [1] of 2.08 µM (≈ 1.58 µg/mL). In addition, the half-life in [2] is 6.9 h. In addition, the Emax in [3] was 90%.
In the case of `Cc1nc(Nc2ncc(C(=O)Nc3c(C)cccc3Cl)s2)cc(N2CCN(CCN3CCN(c4ccc(C5CCC(=O)NC5=O)cc4)CC3)CC2)n1` (centres undefined), the solubility at 18 h in data set [1] was 1.87 µM (≈ 1.39 µg/mL). Moreover, in data set [2], the half-life is 4 h. Moreover, in data set [3], the Emax is 62%. In addition, in [13], the DC50 was found to be 53 nM.
Take `Cc1nc(Nc2ncc(C(=O)Nc3c(C)cccc3Cl)s2)cc(N2CCN(Cc3ccc(C4CCC(=O)NC4=O)cc3)CC2)n1` (centres undefined): the concentration in solution in data set [1] (solubility at 18 h) was 1.99 µM (≈ 1.28 µg/mL). Also, in data set [2], the half-life is 1.23 h. The Emax in data set [3] is < 60%.
On to `Cc1nc(Nc2ncc(C(=O)Nc3c(C)cccc3Cl)s2)cc(N2CCC3(CCN(c4ccc(C5CCC(=O)NC5=O)cc4)CC3)CC2)n1` (centres undefined), for which, in [2], the half-life is 2.2 h. The Emax in data set [3] is < 60%.
In the case of `Cc1nc(Nc2ncc(C(=O)Nc3c(C)cccc3Cl)s2)cc(N2CCN(CCCC(=O)N3CCC4(CC3)CCN(c3ccc(C5CCC(=O)NC5=O)cc3)CC4)CC2)n1` (centres undefined), the concentration in solution in data set [1] (solubility at 18 h) was 1.5 µM (≈ 1.28 µg/mL). Moreover, the half-life in data set [2] is 1.2 h. The Emax in data set [3] was determined as 86%.
For `Cc1nc(Nc2ncc(C(=O)Nc3c(C)cccc3Cl)s2)cc(N2CCN(CCCN3CC4CC3CN4c3ccc(C4CCC(=O)NC4=O)cc3)CC2)n1` (centres undefined), the solubility at 18 h in [1] was 14.5 µM (≈ 11.2 µg/mL). For the same compound, the half-life in data set [2] is 2.6 h. For the same compound, the maximal effect (Emax) in [3] turned out to be 83%.
For `Cc1nc(Nc2ncc(C(=O)Nc3c(C)cccc3Cl)s2)cc(N2CCN(C(=O)CCCN3CC4CC3CN4c3ccc(C4CCC(=O)NC4=O)cc3)CC2)n1` (centres undefined), the half-life in data set [4] is 4.25 h; in data set [2], 0.54 h. Moreover, the solubility at 18 h in data set [1] is 15.2 µM (≈ 12.1 µg/mL). Moreover, the concentration at 4 h in data set [5] was found to be 1.19 ng/mL. For the same compound, in data set [6], the Papp A→B came to 1.32 ×10⁻⁶ cm/s. Moreover, the Emax in data set [3] worked out at 88%. For the same compound, the Papp B→A in data set [7] stood at 1.55 ×10⁻⁶ cm/s.
Turning to `Cc1nc(Nc2ncc(C(=O)Nc3c(C)cccc3Cl)s2)cc(N2CCC(CN3CCN(c4ccc(C5CCC(=O)N(C)C5=O)cc4)CC3)CC2)n1` (centres undefined), the CC50 with KOPTK1 [14] worked out at 1.98 nM. In addition, in data set [13], the result was inactive.
Take `Cc1nc(Nc2ncc(C(=O)Nc3c(C)cccc3Cl)s2)cc(N2CCC(N(C)C3CCN(c4ccc(C5CCC(=O)NC5=O)cc4)CC3)CC2)n1` (centres undefined): the values for the half-life in data set [4] and in data set [2] were 3.84 h and 2.1 h, respectively. The concentration at 4 h in data set [5] stood at 207 ng/mL. For the same compound, the efflux ratio in [15] was 6.56. Moreover, the Papp A→B in [6] turned out to be 1.93 ×10⁻⁶ cm/s. Besides, the maximum response (Emax) in data set [3] is < 60%. In [7], the Papp B→A was found to be 12.7 ×10⁻⁶ cm/s.
On to `Cc1nc(Nc2ncc(C(=O)Nc3c(C)cccc3Cl)s2)cc(N2CCN(CC3CCN(c4ccc(C5CCC(=O)NC5=O)cc4)CC3)CC2)n1` (centres undefined), for which the half-life in data set [2] is 3.5 h. Further, the Emax in data set [3] was < 60%.
In the case of `Cc1nc(Nc2ncc(C(=O)Nc3c(C)cccc3Cl)s2)cc(N2CCN(CCCN3CCN(Cc4ccc(C5CCC(=O)NC5=O)cc4)CC3)CC2)n1` (centres undefined), the half-life in data set [4] is 30.1 h; in data set [2] it was 10 h. Moreover, in data set [1], the concentration in solution (solubility at 18 h) was 7.54 µM (≈ 5.82 µg/mL). For the same compound, in data set [15], the efflux ratio amounted to 11.6. Also, in [16], the clearance is 169 mL/min/kg. Further, the Papp A→B in [6] turned out to be 1.15 ×10⁻⁶ cm/s. Moreover, the Emax in data set [3] came to 84%. Further, in data set [17], the bioavailability came to 3.1%. In data set [7], the Papp B→A stood at 13.3 ×10⁻⁶ cm/s. The DC50 in data set [13] worked out at 4.48 nM.
`Cc1nc(Nc2ncc(C(=O)Nc3c(C)cccc3Cl)s2)cc(N2CCN(CCCN3CCC(c4ccc(C5CCC(=O)NC5=O)cc4)CC3)CC2)n1` (centres undefined): the half-life in data set [4] is 4.98 h; in data set [2], 10 h. This compound also came in with a solubility at 18 h in [1] of 2.57 µM (≈ 1.94 µg/mL). This compound also displayed a concentration at 4 h in data set [5] of 54 ng/mL. Moreover, the Papp A→B in data set [6] stood at 1.04 ×10⁻⁶ cm/s. In addition, the Emax in data set [3] worked out at 87%. The Papp B→A in data set [7] worked out at 9.82 ×10⁻⁶ cm/s.
`Cc1nc(Nc2ncc(C(=O)Nc3c(C)cccc3Cl)s2)cc(N2CCN(CCCC(=O)N3CCN(c4ccc(C5CCC(=O)NC5=O)cc4)CC3)CC2)n1` (centres undefined) yielded a solubility at 18 h in data set [1] of 0.15 µM (≈ 0.118 µg/mL). The half-life in data set [2] was 1.06 h. Moreover, in data set [3], the Emax worked out at 93%.
The matching figures for `Cc1nc(Nc2ncc(C(=O)Nc3c(C)cccc3Cl)s2)cc(N2CCN(CCCC(=O)N3CCC(CN4CCN(c5ccc(C6CCC(=O)NC6=O)cc5)CC4)CC3)CC2)n1` (centres undefined): 0.65 µM (≈ 0.574 µg/mL), 0.67 h and 84%.

Broadly, the solubility is the concentration that dissolves in the medium under given conditions. Read a high solubility as much dissolved substance. The half-life is the time needed for the level to fall by half in the phase considered. As usually defined, the Emax is the size of the effect at its maximum, as opposed to the concentration needed. Broadly, the Papp A→B is the apparent permeability from the apical to the basolateral side of a cell layer. One may read the Papp B→A as the apparent permeability from the basolateral to the apical side of a cell layer. Usually DC50 stands for the midpoint of the concentration-degradation curve. For orientation: efflux ratio means a quotient of directional permeabilities that is used to spot active efflux. The term clearance denotes a measure of how efficiently the substance is removed, as volume per time. The low end stands for inefficient removal, the high end for efficient removal. What is called bioavailability is the share of a dose that reaches the circulation, judged against a reference dose that is usually intravenous. Higher therefore signals good availability.
